Legend:
[1] = Binding constant by microcalorimeter (VP-ITC); details: water/formic acid 1:1 by volume, 1.0 mM host
Description: Distilled water and formic acid were mixed in a ratio of 1:1: by volume. Next, 1.0 mM of cucurbit[5]uril derivative was prepared with the diluted formic acid. 20.0 mM of aqueous solution containing ammonium ions, and positive ions of alkaline metals, such as lithium, sodium and potassium, was prepared. Then, the binding constants of the cucurbit[5]uril derivative with these ions were measured using a microcalorimeter (VP-ITC, manufactured by MicroCal). As a result, the cucurbit[5]uril derivative has a binding constant of 5.4×10^3M^−1 with ammonium ions, 3.3×10^2M^−1 with positive lithium ions, 4.5×10^3M^−1 with positive sodium ions, and 2.6×10^4M^−1 with positive potassium ions. The cucurbit[5]uril derivative can selectively bind with alkali metal ions, as well as with ammonium ions. The result confirms that cucurbituril derivatives can be used as ion sensors.

[2] = Host-guest complex formation in water (NMR); assay type: binding; details: guest 2,6-Bis(4,5-dihydro-1H-imidazol-2-yl)naphthalene dihydrochloride
Description: 5.80 mg of 2,6-Bis(4,5-dihydro-1H-imidazol-2-yl)naphthalene dihydrochloride and 5.0 mg of cucurbit[8]uril were dissolved in water.
4.35 mg of 2,6-Bis(4,5-dihydro-1H-imidazol-2-yl)naphthalene dihydrochloride and 5.0 mg of cucurbit[7]uril were dissolved in water.

[3] = Inclusion complex formation in water; assay type: binding; details: guest 1-aminoadamantane, addition of methanol
Description: 24.2 mg of 1-aminoadanmatane hydrochloride and 50.0 mg of cucurbi[7]uril were dissolved in water.

[4] = Organic dye removal from water, UV absorption of filtrate
Description: 30 mg of organic dye, Direct Red 5B (commercially available from Ciba-Geigy Co.) was dissolved in 150 ml of water to prepare an organic dye solution. To half the organic dye solution, 150 mg of cucurbit[7]uril was added and stirred for 30 minutes.
The precipitate was filtered, and UV absorption spectra were measured at λmax=510 nm on the filtrate and the remaining half of the organic dye solution which was not treated with the cucurbut[7]uril.
R=UV absorption intensity of the dye solution treated with cucurbit[7]uril ×100/UV absorption intensity of the dye solution before the treatment with cucurbit[7]uril.
The following dyes were used: Reactive Blue HE-G (produced by Kyung-In Co.), Direct Solophenyl Violet 4BL (produced by Ciba-Geigy Co.), Reactive Navy Blue HE-R 150 (produced by Kyung-In Co.), Disperse Yellow E-3 (produced by LG Co.), Disperse T/Q Blue S-GL (produced by LG Co.) and Orange TGL (produced by Ciba-Geigy Co.).

[5] = Inclusion complex formation in water; assay type: binding; details: guest cyclam, heating then slow cooling
Description: 13.0 mg of cyclam tetrahydrochloride (1,4,8,11-tetraazacyclotetradecane tetrahydrochloride) and 10.0 mg of cucurbit[8]uril were dissolved in water.

[6] = Inclusion complex formation in water; assay type: binding; details: guest cyclen, heating then slow cooling
Description: 120.0 mg of cyclen tetrahydrochloride ([…] tetrahydrochloride) and 100.0 mg of cucurbit[8]uril were dissolved in water.

[7] = Complex formation with herbicide (NMR); assay type: binding; details: methylviologen and host, D2O
Description: Methylviologendichloride (so-called paraquat), a herbicide, was used. 5.0 mM of mehylbiologendichloride solution was prepared with D2O solvent. Next, cucurbit[8]uril was added to the solution.

[8] = Ternary complex formation, amino acid sensing (NMR); assay type: binding; details: methylviologen, tyrosine and host, D2O, heated
Description: 5.0 mM of methylviologendichloride solution, and 5.0 mM of tyrosine solution were prepared using D2O solvent. 0.25 ml of each solution was mixed with 2.1 mg of cucurbit[8]uril. Next, the mixture was heated until the color changed into yellow.

[9] = as above; assay type: binding; details: methylviologen, tryptophan and host, D2O, heated
Description: 5.0 mM of methylviologendichloride solution, and 5.0 mM of tryptophan solution were prepared using D2O solvent. 0.25 ml of each solution was mixed with 2.1 mg of cucurbit[8]uril. Next, the mixture was heated until the color changed into red.

[10] = Complex formation with anti-cancer drug, drug carrier test (NMR); assay type: binding; details: in water
Description: The following example is for investigating the function of the cucurbituril derivatives obtained in Synthesis Examples 1 through 10, as a drug carrier. In the following example, cisplatin, an anti-cancer drug, was used.
2.0 mg of Cis-dichloroethylenediamine platinum (II) and 2.0 mg of cucurbit[8]uril were dissolved in water.

[11] = Ternary complex formation, nucleic acid base sensing (NMR); assay type: binding; details: methylviologen, thymine and host, D2O, heated
Description: 5.0 mM of methylviologendichloride solution, and 5.0 mM of thymine solution were prepared using D2O solvent. 0.25 ml of each solution was mixed with 2.1 mg of cucurbit[8]uril. Next, the mixture was heated until the color changed into yellow.

For `O=C1N2CN3C(=O)N4CN5C(=O)N6CN7C(=O)N8CN9C(=O)N%10CN1C1C2N2CN%11C(=O)N(CN%12C(=O)N(CN%13C(=O)N(CN%14C(=O)N(CN1C2=O)C%10C9%14)C8C7%13)C6C5%12)C4C3%11` (stereo not shown) [cucurbit[5]uril], the “binding constant with ammonium ions” value [1] was 5400 M⁻¹, the “binding constant with positive lithium ions” value [1] was 330 M⁻¹ and the “binding constant with positive potassium ions” value [1] was 26000 M⁻¹. The “binding constant with positive sodium ions” value [1] was 4500 M⁻¹.
In the case of cucurbit[7]uril, the “host-guest complex formation and stoichiometry” value [2] is reported as “quantitative formation of a 1:1 host-guest complex”, the inclusion complex formation [3] is reported as “produced an inclusion complex” and the R ([4]; Direct Red 5B, 510 nm, R = intensity after treatment ×100 / intensity before) is reported as 1.7%. It also gave an R ([4]; Direct Solophenyl Violet 4BL, 546 nm, R = intensity after ×100 / before) of 1.3%, an R ([4]; Disperse T/Q Blue S-GL 200, 776 nm, R = intensity after ×100 / before) of 0.8% and an R ([4]; Disperse Yellow E-3, 429 nm, R = intensity after ×100 / before) of 3.0%. It also gave an R ([4]; Orange TGL, 419 nm, R = intensity after ×100 / before) of 5.4%, an R ([4]; Reactive Blue HE-G, 626 nm, R = intensity after ×100 / before) of 0.3% and an R ([4]; Reactive Blue HE-G, 662 nm, R = intensity after ×100 / before) of 0.3%. For the same compound, the R ([4]; Reactive Navy Blue HE-R 150, 609 nm, R = intensity after ×100 / before) was 0.6%.
In the case of `O=C1N2CN3C(=O)N4CN5C(=O)N6CN7C(=O)N8CN9C(=O)N%10CN%11C(=O)N%12CN%13C(=O)N%14CN%15C(=O)N%16CN1C1C2N2CN%17C(=O)N(CN%18C(=O)N(CN%19C(=O)N(CN%20C(=O)N(CN%21C(=O)N(CN%22C(=O)N(CN%23C(=O)N(CN1C2=O)C%16C%15%23)C%14C%13%22)C%12C%11%21)C%10C9%20)C8C7%19)C6C5%18)C4C3%17` (stereo not shown) [cucurbit[8]uril], the “host-guest complex formation and stoichiometry” value [2] is reported as “quantitative formation of a 1:2 host-guest complex”, the inclusion complex formation [5] is reported as “produced an inclusion complex” and the inclusion complex formation [6] is reported as “produced an inclusion complex”. For the same compound, the “complex formation and stoichiometry” value [7] was “quantitative formation of a 1:1 complex”, the “complex formation and stoichiometry” value [8] was “quantitative formation of a 1:1:1 complex” and the “complex formation and stoichiometry” value [9] was “quantitative formation of a 1:1:1 complex”. For the same compound, the “complex formation and stoichiometry (platinum compound : host)” value [10] was “quantitative formation of a 2:1 complex” and the “complex formation and stoichiometry” value [11] was “quantitative formation of a 1:1:1 complex”.
